Reference: US10870660B2, “Nitrogen-containing condensed ring compounds having dopamine D3 antagonistic effect” (Shionogi & Co., Ltd., priority 2016, dated 2020)

Columns and labels:
[1] = target: human recombinant dopamine D2 receptor (Homo sapiens (Human), UniProt P14416); assay: Test of binding inhibition for the human dopamine D2 receptor ([3H]-Metylspiperone SPA binding); details: [3H]-Metylspiperone 1.2 nM, Jump-In HEK cell membranes, read-out: hD2_Ki
Procedure: Cell membranes: Jump-In HEK cell membranes expressing human recombinant dopamine D2 receptor (2 μg/well)
Buffer solution: 50 mM Tris-HCl (35409-45, Nacalai Tesque) (pH 7.4) containing 120 mM NaCl (31320-05, Nacalai Tesque), 1 mM MgCl2.6H2O (20909-55, Nacalai Tesque), 5 mM KCl (28514-75, Nacalai Tesque) and 2 mM CaCl2 (067-31, Nacalai Chemical, Ltd)
Radioligand: (final concentration) 1.2 nM [^3H]-Metylspiperone ([^3H—N-methyl-]-Metylspiperone, NET-856, 83.8 Ci/mmol, PerkinElmer)
(§1) Non-specific ligand: (final concentration) 10 μM Butaclamol [(+)-Butaclamol Hydrochioride, D033, Sigma]
(§2) SPA beads: SPA beads [WGA PVT SPA Scintillatiion Beads, RPNQ0001 (500 mg), RPNQ0060 (2 g), PerkinElmer] (0.2 mg/well)
(§3) Incubation time and temperature: 120 min at 25° C.
(§4) Butaclamol or the compounds of the present invention were weighed and DMSO was added to make a 10 mM solution. This solution was diluted to each concentration.
[^3H]-Metylspiperone was weighed and the buffer solution was added to make a 3.6 nM solution.
(§5) SPA beads were weighed and stirred in water to make a 50 mg/mL solution. Using this solution, a mixed solution with the cell membranes was prepared.
225 nL of the solutions of the non-specific ligand or the compounds of the present invention at each concentration (in case of vehicle, final concentration 0.3% DMSO) were added in each well of a 384-well white/clear bottom microplate (3706, Corning). Jump-In HEK Cell membranes (final reaction amount: 2 μg protein/well), SPA beads (final reaction amount: 0.2 mg/well) and the buffer were mixed and the mixed solution was left still for more than or equal to 1 h at 4° C. Then, 50 μL of the mixture was added to each well of the plate. In addition, 25 μL of 3.6 nM [^3H]-Metylspiperone (final concentration: 1.2 nM) was added to each well. The plate was sealed by putting TopSeal-A 96/384 well (6050185, PerkinElmer) on the top of the plate, mixed using stirring deaerator (Welltornado, FK-62, Sakaki) and incubated for 120 min at 25° C. After incubation, the radioactivity of [^3H]-Metylspiperone which was binded to D2 receptor was determined by liquid scintillation counter (1450 Microbeta, PerkinElmer) in each well. Non-specific binding was calculated based on the radioactivity of [^3H]-Metylspiperone in the presence of 10 μM non-labeled Butaclamol. The total binding was calculated using the radioactivity of [^3H]-Metylspiperone in the absence of the compounds of the present invention (Vehicle). The Ki values were calculated from dose-response curves.
(§6) Binding activities of the compounds of the present invention were calculated from the following Binding Inhibition Rate (%): Inhibition Rate (%)=[1−(c−a)(b−a)]×100(%) • a: Average cpm of non-specific binding • b: Average cpm of total binding • c: Cpm in the presence of each test compound

[2] = target: human recombinant dopamine D3 receptor (Homo sapiens (Human), UniProt P35462); assay: Test of binding inhibition for the human dopamine D3 receptor ([3H]-Metylspiperone SPA binding); details: [3H]-Metylspiperone 2 nM, Jump-In HEK cell membranes, read-out: hD3_Ki
Procedure: Cell membranes: Jump-In HEK cell membranes expressing human recombinant dopamine D3 receptor (4 μg/well)
as §1, §2, §3, §4
[^3H]-Metylspiperone was weighed and the buffer solution was added to make a 6 nM solution.
as §5
Jump-In HEK Cell membranes (final reaction amount: 4 μg/well), SPA beads (final reaction amount: 0.2 mg/well) and Tris-HCl buffer were mixed and the mixed solution was left still for more than 60 min at 4° C. Then, 50 μL of the mixture was added to each well of the plate. In addition, 25 μL of 6 nM [^3H]-Metylspiperone (final concentration: 2 nM) was added to each well. […] Non-specific binding was calculated based on the radioactivity of [^3H]-Metylspiperone in the presence of 10 μM non-labeled Butaclamol. The total binding was calculated based on the radioactivity of [^3H]-Metylspiperone in the absence of the compounds of the present invention (Vehicle). The Ki values were calculated from dose-response curves.
as §6

human recombinant dopamine D2 receptor, sequence (P14416 whole entry): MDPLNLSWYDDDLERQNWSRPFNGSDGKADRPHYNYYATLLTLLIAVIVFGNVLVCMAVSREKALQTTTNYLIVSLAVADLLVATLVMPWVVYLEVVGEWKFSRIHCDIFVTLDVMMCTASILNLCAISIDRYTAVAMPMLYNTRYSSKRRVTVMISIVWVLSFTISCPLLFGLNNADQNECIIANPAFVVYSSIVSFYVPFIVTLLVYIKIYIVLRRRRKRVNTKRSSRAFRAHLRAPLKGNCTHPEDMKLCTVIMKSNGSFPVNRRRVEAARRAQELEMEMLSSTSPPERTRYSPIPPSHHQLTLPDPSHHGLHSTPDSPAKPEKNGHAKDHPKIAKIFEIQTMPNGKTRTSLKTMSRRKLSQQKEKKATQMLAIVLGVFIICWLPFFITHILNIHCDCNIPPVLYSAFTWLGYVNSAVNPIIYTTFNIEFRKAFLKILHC
human recombinant dopamine D3 receptor, sequence (P35462 whole entry): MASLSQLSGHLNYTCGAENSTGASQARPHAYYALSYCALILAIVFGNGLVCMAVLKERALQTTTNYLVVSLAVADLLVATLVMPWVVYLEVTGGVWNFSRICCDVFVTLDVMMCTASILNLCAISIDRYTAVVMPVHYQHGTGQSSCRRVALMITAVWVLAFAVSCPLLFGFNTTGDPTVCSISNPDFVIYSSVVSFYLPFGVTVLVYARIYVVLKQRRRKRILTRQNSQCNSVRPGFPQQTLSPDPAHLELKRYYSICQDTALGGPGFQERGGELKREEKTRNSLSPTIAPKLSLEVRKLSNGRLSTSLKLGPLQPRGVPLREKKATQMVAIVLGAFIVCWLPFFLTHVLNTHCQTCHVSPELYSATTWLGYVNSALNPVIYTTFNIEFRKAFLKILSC

Row | Compound | Ki [1] | Ki [2]
1 | Cc1ncc(CC(=O)N[C@H]2CC[C@H](CCN3CCc4nc(OCC(C)(C)F)sc4CC3)CC2)s1 [II-099] | > 1900 nM | 0.52 nM
2 | O=C(N[C@H]1CC[C@H](CCN2CCc3nc(OCC(F)F)ncc3C2)CC1)c1cccc2ncccc12 [Compound I-136] | > 1800 nM | 25 nM
3 | O=C(N[C@H]1CC[C@H](CCN2CCc3cnc(CC4CC4)nc3C2)CC1)c1cccc2ncccc12 [Compound I-133] | > 1700 nM | 7.9 nM
4 | O=C(N[C@H]1CC[C@H](CCN2CCc3sc(Br)nc3C2)CC1)c1cccc2ncccc12 [Compound I-003] | > 1900 nM | 2.6 nM
5 | O=C(CCC(F)(F)F)N[C@H]1CC[C@H](CCN2CCc3nc(CCC(F)(F)F)sc3CC2)CC1 [II-018] | > 1800 nM | 2.7 nM
6 | O=C(N[C@H]1CC[C@H](CCN2CCc3nc(-c4ccccc4)sc3C2)CC1)c1cccc2ncccc12 [Compound I-018] | > 1700 nM | 12 nM
7 | Cn1cc(CC(=O)N[C@H]2CC[C@H](CCN3CCc4sc(OCC(F)F)nc4C3)CC2)cn1 [Compound I-108] | 1400 nM | 1.5 nM
8 | O=C(N[C@H]1CC[C@H](CCN2CC[C@H]3CN(c4ccccc4)C[C@@H]3C2)CC1)c1cccc2ncccc12 (racemic) [Compound I-033] | 170 nM | 3.6 nM
9 | Cc1cc(OCC(=O)N[C@H]2CC[C@H](CCN3CCc4ccc(OCC(F)(F)F)nc4CC3)CC2)no1 [II-078] | > 1800 nM | 0.075 nM
10 | COc1cc(CC(=O)N[C@H]2CC[C@H](CCN3CCc4ccc(OCC(F)(F)F)nc4CC3)CC2)on1 [II-077] | > 1800 nM | 0.095 nM
11 | CN1Cc2c(C(=O)N[C@H]3CC[C@H](CCN4CCc5nc(OCC(F)(F)F)sc5CC4)CC3)cccc2C1=O [II-047] | 280 nM | 0.022 nM
12 | CC(F)(F)COc1nc2c(s1)CCN(CC[C@H]1CC[C@H](NC(=O)c3cccc4ncccc34)CC1)C2 [Compound I-071] | 150 nM | 0.13 nM
13 | CCn1c(C(=O)N[C@H]2CC[C@H](CCN3CCc4ccc(OCC(F)(F)F)nc4CC3)CC2)cccc1=O [II-081] | 230 nM | 0.048 nM

Results, then the compound that gave them:

Row | Ki [1] | Ki [2] | Compound
14 | > 1700 nM | 0.55 nM | CCCOc1nc2c(s1)CCN(CC[C@H]1CC[C@H](NC(=O)c3cccc4nn(C)cc34)CC1)C2 [III-544]
15 | 1100 nM | 0.6 nM | Cn1cc2ccc(C(=O)N[C@H]3CC[C@H](CCN4CCc5nc(OCC(F)F)sc5CC4)CC3)cc2n1 [III-270]
16 | > 1800 nM | 1.1 nM | Cc1ncc(CC(=O)N[C@H]2CC[C@H](CCN3CCc4ccc(OC5CCOC5)nc4CC3)CC2)s1 (stereo partly shown) [III-052]
17 | > 1900 nM | 0.16 nM | Cn1ccc2c(C(=O)N[C@H]3CC[C@H](CCN4CCc5sc(OCC(C)(F)F)nc5C4)CC3)cccc2c1=O [III-630]
18 | 540 nM | 0.25 nM | O=C(CCC(F)(F)F)N[C@H]1CC[C@H](CCN2CCc3sc(N4CC(F)(F)C4)nc3C2)CC1 [III-580]
19 | 640 nM | 0.026 nM | CC(Oc1nc2c(s1)CCN(CC[C@H]1CC[C@H](NC(=O)c3cccc4c3CN(C)C4=O)CC1)CC2)C(F)(F)F (stereo partly shown) [III-064]
20 | 1300 nM | 0.5 nM | Cn1cc2c(C(=O)NN3CCC(CCN4CCc5sc(OCC(F)(F)F)nc5C4)CC3)cccc2n1 [III-661]
21 | 350 nM | 0.32 nM | Cn1cc(OCC(=O)N[C@H]2CC[C@H](CCN3CCc4sc(OCC(C)(F)F)nc4C3)CC2)cn1 [III-573]
22 | > 1700 nM | 0.53 nM | Cc1cc(OCC(=O)N[C@H]2CC[C@](F)(CCN3CCc4ccc(OCC(F)(F)F)nc4CC3)CC2)no1 [III-104]
23 | 280 nM | 0.1 nM | Cn1cc2c(C(=O)N[C@H]3CC[C@H](CCN4CCc5sc(CCC(F)F)nc5C4)CC3)cccc2n1 [III-685]
24 | 400 nM | 0.092 nM | Cn1cc2c(C(=O)NC3CC4(CC(CCN5CCc6sc(OCC(C)(F)F)nc6C5)C4)C3)cccc2n1 (single isomer, unassigned) [III-624]
25 | 240 nM | 0.31 nM | CC(C)C(=O)N[C@H]1CC[C@H](CCN2CCc3nc(OCC(F)(F)F)sc3CC2)CC1 [III-031]
26 | 460 nM | 0.77 nM | Cc1cnc(CC(=O)N[C@H]2CC[C@H](CCN3CCc4ccc(OCC(F)(F)F)nc4CC3)OC2)o1 [III-234]
27 | 1100 nM | 0.9 nM | Cc1nc(CC(=O)N[C@H]2CC[C@H](CCN3CCc4sc(N5CC(F)(F)C5)nc4C3)CC2)no1 [III-512]
28 | 670 nM | 0.81 nM | Cc1ncc(OCC(=O)N[C@H]2CC[C@H](CCN3CCc4nc(OCC(F)(F)F)sc4CC3)OC2)cn1 [III-165]
29 | 120 nM | 0.086 nM | CCN1Cc2c(C(=O)N[C@H]3CC[C@H](CCN4CCc5ccc(OCC(F)(F)F)nc5CC4)OC3)cccc2C1=O [III-236]
30 | 570 nM | 0.43 nM | Cc1ncc(OCC(=O)N[C@H]2CC[C@](F)(CCN3CCc4nc(OCC(F)(F)F)sc4CC3)CC2)cn1 [III-254]
31 | > 1900 nM | 0.13 nM | CC(Oc1nc2c(s1)CCN(CC[C@H]1CC[C@H](NC(=O)c3cccc4nn(C)cc34)CC1)CC2)C(F)(F)F (stereo partly shown) [III-063]
32 | 140 nM | 0.13 nM | Cn1cc(/C=C/C(=O)N[C@H]2CC[C@H](CCN3CCc4nc(OCC(F)(F)F)sc4CC3)OC2)cn1 [III-168]
33 | 140 nM | 0.12 nM | Cc1ncc(/C=C/C(=O)N[C@H]2CC[C@H](CCN3CCc4nc(OCC(F)F)sc4CC3)CC2)s1 [III-274]
34 | > 1800 nM | 0.25 nM | Cc1nc(CC(=O)N[C@H]2CC[C@](F)(CCN3CCc4nc(OCC(F)(F)F)sc4CC3)CC2)no1 [III-264]
35 | 400 nM | 0.11 nM | Cn1cc(CC(=O)N[C@H]2CC[C@](F)(CCN3CCc4ccc(OCC(F)(F)F)nc4CC3)CC2)cn1 [III-102]
36 | 480 nM | 0.57 nM | Cn1cc(CC(=O)N[C@H]2CC[C@](F)(CCN3CCc4nc(OCC(F)(F)F)sc4CC3)CC2)cn1 [III-261]
37 | 140 nM | 0.012 nM | CN1Cc2c(C(=O)N[C@H]3CC[C@H](CCN4CCc5ccc(OCC(C)(F)F)nc5CC4)CC3)cccc2C1=O [III-024]
38 | 1100 nM | 0.5 nM | Cc1nc(CC(=O)N[C@H]2CC[C@H](CCN3CCc4ccc(OCC(F)(F)F)nc4CC3)OC2)no1 [III-001]
39 | > 1700 nM | 0.34 nM | Cn1cc2c(C(=O)N[C@H]3CC[C@H](CCN4CCc5nc(O[C@H]6C[C@H](F)C6)sc5CC4)CC3)cccc2n1 [III-158]
40 | 830 nM | 0.46 nM | Cn1ncc(CC(=O)N[C@H]2CC[C@H](CCN3CCc4sc(OCC(C)(F)F)nc4C3)CC2)c1F [III-548]
41 | 610 nM | 0.49 nM | Cc1ncc(CC(=O)N[C@H]2CC[C@H](CCN3CCc4sc(OCC(F)(F)F)nc4C(C)C3)CC2)s1 (stereo partly shown) [III-110]
